Where two headings read alike, the source gives them in different places.
What was measured:
Experiment in all cases: Test D pre-/postemergence plant response
Type in all cases: in vivo
[1] = test system: waterhemp (common waterhemp, Amaranthus rudis); details: Amaranthus tuberculatus; for pest or weed control at 8 g/ha: 8 g ai/ha; for pest or weed control at 16 g/ha: 16 g ai/ha; for pest or weed control at 31 g/ha: 31 g ai/ha; for pest or weed control at 62 g/ha: 62 g ai/ha
Procedure, shortened: (§1)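 Plants are held in a greenhouse 13 to 15 days after spraying, then injury is rated by eye relative to controls on a 0 to 100 scale. Treatments are preemergence on freshly sown loam/sand pots or postemergence at 1- to 4-leaf stage in peat-based medium; surfactant-containing solvent formulation.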

[2] = test system: Italian ryegrass (Lolium multiflorum); details: Lolium multiflorum; for pest or weed control at 8 g/ha: 8 g ai/ha; for pest or weed control at 16 g/ha: 16 g ai/ha; for pest or weed control at 31 g/ha: 31 g ai/ha; for pest or weed control at 62 g/ha: 62 g ai/ha
Procedure, shortened: as §1

[3] = test system: velvetleaf (Abutilon theophrasti); details: Abutilon theophrasti; for pest or weed control at 8 g/ha: 8 g ai/ha; for pest or weed control at 16 g/ha: 16 g ai/ha; for pest or weed control at 31 g/ha: 31 g ai/ha; for pest or weed control at 62 g/ha: 62 g ai/ha
Procedure, shortened: as §1

[4] = test system: large (Lg) crabgrass (Digitaria sanguinalis); details: Digitaria sanguinalis; for pest or weed control at 8 g/ha: 8 g ai/ha; for pest or weed control at 16 g/ha: 16 g ai/ha; for pest or weed control at 31 g/ha: 31 g ai/ha; for pest or weed control at 62 g/ha: 62 g ai/ha
Procedure, shortened: as §1

[5] = test system: blackgrass (Alopecurus myosuroides); details: Alopecurus myosuroides; for pest or weed control at 8 g/ha: 8 g ai/ha; for pest or weed control at 16 g/ha: 16 g ai/ha; for pest or weed control at 31 g/ha: 31 g ai/ha; for pest or weed control at 62 g/ha: 62 g ai/ha
Procedure, shortened: as §1

[6] = test system: barnyardgrass (Echinochloa crus-galli); details: Echinochloa crus-galli; for pest or weed control at 8 g/ha: 8 g ai/ha; for pest or weed control at 16 g/ha: 16 g ai/ha; for pest or weed control at 31 g/ha: 31 g ai/ha; for pest or weed control at 62 g/ha: 62 g ai/ha
Procedure, shortened: as §1

[7] = post-emergence, Postemergence, scale 0 to 100 (0 no effect, 100 complete control), read-out: Waterhemp plant response rating
[8] = pre-emergence, Preemergence, scale 0 to 100 (0 no effect, 100 complete control), read-out: Plant response rating, Waterhemp
[9] = post-emergence, Postemergence, scale 0 to 100 (0 no effect, 100 complete control), read-out: Ryegrass, Italian plant response rating
[10] = pre-emergence, Preemergence, scale 0 to 100 (0 no effect, 100 complete control), read-out: Plant response rating, Ryegrass, Italian
[11] = post-emergence, Postemergence, scale 0 to 100 (0 no effect, 100 complete control), read-out: Velvetleaf plant response rating
[12] = pre-emergence, Preemergence, scale 0 to 100 (0 no effect, 100 complete control), read-out: Plant response rating, Velvetleaf
[13] = post-emergence, Postemergence, scale 0 to 100 (0 no effect, 100 complete control), read-out: Crabgrass, Large plant response rating
[14] = pre-emergence, Preemergence, scale 0 to 100 (0 no effect, 100 complete control), read-out: Plant response rating, Crabgrass, Large
[15] = post-emergence, Postemergence, scale 0 to 100 (0 no effect, 100 complete control), read-out: Blackgrass plant response rating
[16] = pre-emergence, Preemergence, scale 0 to 100 (0 no effect, 100 complete control), read-out: Plant response rating, Blackgrass
[17] = post-emergence, Postemergence, scale 0 to 100 (0 no effect, 100 complete control), read-out: Barnyardgrass plant response rating
[18] = pre-emergence, Preemergence, scale 0 to 100 (0 no effect, 100 complete control), read-out: Plant response rating, Barnyardgrass

**Q.** For `FC(F)c1cc(-c2ccccc2Oc2ncc(Cl)cn2)no1` [Compound 35, 5-chloro-2-[2-[5-(difluoromethyl)-3-isoxazolyl]phenoxy]pyrimidine], which pest or weed control at 8 g/ha ([1]; post-emergence, Postemergence, read-out: Plant response rating (scale 0 to 100), Waterhemp) is on record?
**A.** The pest or weed control at 8 g/ha was 75%.

**Q.** What about the pest or weed control at 16 g/ha [1, 7] of the same compound?
**A.** Its pest or weed control at 16 g/ha is 75%.

**Q.** And the pest or weed control at 31 g/ha [1, 7]?
**A.** Its pest or weed control at 31 g/ha is 95%.

**Q.** And the pest or weed control at 62 g/ha ([1]; post-emergence, Postemergence, scale 0 to 100, 0 no effect, 100 complete control, read-out: Plant response rating, Waterhemp)?
**A.** Its pest or weed control at 62 g/ha is 98%.

**Q.** And the pest or weed control at 8 g/ha [1, 8]?
**A.** Its pest or weed control at 8 g/ha is 100%.

**Q.** What about the pest or weed control at 16 g/ha [1, 8] of the same compound?
**A.** Its pest or weed control at 16 g/ha is 100%.

**Q.** And the pest or weed control at 31 g/ha [1, 8]?
**A.** Its pest or weed control at 31 g/ha is 100%.

**Q.** What about the pest or weed control at 62 g/ha [1, 8] of the same compound?
**A.** Its pest or weed control at 62 g/ha is 100%.

**Q.** And the pest or weed control at 8 g/ha ([2]; post-emergence, Postemergence, read-out: Plant response rating (scale 0 to 100), Ryegrass, Italian)?
**A.** The pest or weed control at 8 g/ha was 0%.

**Q.** What about the pest or weed control at 16 g/ha [2, 9] of the same compound?
**A.** Its pest or weed control at 16 g/ha is 0%.

**Q.** What about the pest or weed control at 31 g/ha [2, 9] of the same compound?
**A.** The pest or weed control at 31 g/ha was 5%.

**Q.** And the pest or weed control at 62 g/ha ([2]; post-emergence, Postemergence, scale 0 to 100, 0 no effect, 100 complete control, read-out: Plant response rating, Ryegrass, Italian)?
**A.** Its pest or weed control at 62 g/ha is 20%.

**Q.** And the pest or weed control at 8 g/ha [2, 10]?
**A.** The pest or weed control at 8 g/ha was 0%.

**Q.** What about the pest or weed control at 16 g/ha [2, 10] of the same compound?
**A.** The pest or weed control at 16 g/ha was 0%.

**Q.** What about the pest or weed control at 31 g/ha [2, 10] of the same compound?
**A.** Its pest or weed control at 31 g/ha is 30%.

**Q.** And the pest or weed control at 62 g/ha [2, 10]?
**A.** Its pest or weed control at 62 g/ha is 80%.

**Q.** And the pest or weed control at 8 g/ha ([3]; post-emergence, Postemergence, read-out: Plant response rating (scale 0 to 100), Velvetleaf)?
**A.** Its pest or weed control at 8 g/ha is 30%.

**Q.** And the pest or weed control at 16 g/ha [3, 11]?
**A.** Its pest or weed control at 16 g/ha is 50%.

**Q.** What about the pest or weed control at 31 g/ha [3, 11] of the same compound?
**A.** Its pest or weed control at 31 g/ha is 55%.

**Q.** And the pest or weed control at 62 g/ha ([3]; post-emergence, Postemergence, scale 0 to 100, 0 no effect, 100 complete control, read-out: Plant response rating, Velvetleaf)?
**A.** The pest or weed control at 62 g/ha was 65%.

**Q.** What about the pest or weed control at 8 g/ha [3, 12] of the same compound?
**A.** The pest or weed control at 8 g/ha was 65%.

**Q.** What about the pest or weed control at 16 g/ha [3, 12] of the same compound?
**A.** The pest or weed control at 16 g/ha was 85%.

**Q.** What about the pest or weed control at 31 g/ha [3, 12] of the same compound?
**A.** Its pest or weed control at 31 g/ha is 85%.

**Q.** What about the pest or weed control at 62 g/ha [3, 12] of the same compound?
**A.** The pest or weed control at 62 g/ha was 100%.

**Q.** And the pest or weed control at 8 g/ha ([4]; post-emergence, Postemergence, read-out: Plant response rating (scale 0 to 100), Crabgrass, Large)?
**A.** The pest or weed control at 8 g/ha was 5%.

**Q.** What about the pest or weed control at 16 g/ha [4, 13] of the same compound?
**A.** Its pest or weed control at 16 g/ha is 10%.

**Q.** What about the pest or weed control at 31 g/ha [4, 13] of the same compound?
**A.** Its pest or weed control at 31 g/ha is 10%.

**Q.** And the pest or weed control at 62 g/ha ([4]; post-emergence, Postemergence, scale 0 to 100, 0 no effect, 100 complete control, read-out: Plant response rating, Crabgrass, Large)?
**A.** Its pest or weed control at 62 g/ha is 10%.

**Q.** And the pest or weed control at 8 g/ha [4, 14]?
**A.** Its pest or weed control at 8 g/ha is 80%.

**Q.** What about the pest or weed control at 16 g/ha [4, 14] of the same compound?
**A.** Its pest or weed control at 16 g/ha is 100%.

**Q.** And the pest or weed control at 31 g/ha [4, 14]?
**A.** The pest or weed control at 31 g/ha was 100%.

**Q.** What about the pest or weed control at 62 g/ha [4, 14] of the same compound?
**A.** Its pest or weed control at 62 g/ha is 100%.

**Q.** What about the pest or weed control at 8 g/ha ([5]; post-emergence, Postemergence, read-out: Plant response rating (scale 0 to 100), Blackgrass) of the same compound?
**A.** The pest or weed control at 8 g/ha was 30%.

**Q.** And the pest or weed control at 16 g/ha [5, 15]?
**A.** Its pest or weed control at 16 g/ha is 35%.

**Q.** And the pest or weed control at 31 g/ha [5, 15]?
**A.** Its pest or weed control at 31 g/ha is 40%.

**Q.** And the pest or weed control at 62 g/ha ([5]; post-emergence, Postemergence, scale 0 to 100, 0 no effect, 100 complete control, read-out: Plant response rating, Blackgrass)?
**A.** Its pest or weed control at 62 g/ha is 60%.

**Q.** What about the pest or weed control at 8 g/ha [5, 16] of the same compound?
**A.** The pest or weed control at 8 g/ha was 70%.

**Q.** What about the pest or weed control at 16 g/ha [5, 16] of the same compound?
**A.** The pest or weed control at 16 g/ha was 70%.

**Q.** And the pest or weed control at 31 g/ha [5, 16]?
**A.** The pest or weed control at 31 g/ha was 90%.

**Q.** And the pest or weed control at 62 g/ha [5, 16]?
**A.** Its pest or weed control at 62 g/ha is 90%.

**Q.** And the pest or weed control at 8 g/ha ([6]; post-emergence, Postemergence, read-out: Plant response rating (scale 0 to 100), Barnyardgrass)?
**A.** The pest or weed control at 8 g/ha was 10%.

**Q.** What about the pest or weed control at 16 g/ha [6, 17] of the same compound?
**A.** The pest or weed control at 16 g/ha was 15%.

**Q.** What about the pest or weed control at 31 g/ha [6, 17] of the same compound?
**A.** Its pest or weed control at 31 g/ha is 20%.

**Q.** And the pest or weed control at 62 g/ha ([6]; post-emergence, Postemergence, scale 0 to 100, 0 no effect, 100 complete control, read-out: Plant response rating, Barnyardgrass)?
**A.** Its pest or weed control at 62 g/ha is 20%.

**Q.** And the pest or weed control at 62 g/ha ([6]; pre-emergence, Preemergence, read-out: Plant response rating (scale 0 to 100), Barnyardgrass)?
**A.** The pest or weed control at 62 g/ha was 100%.

**Q.** And the pest or weed control at 8 g/ha [6, 18]?
**A.** Its pest or weed control at 8 g/ha is 5%.

**Q.** What about the pest or weed control at 16 g/ha [6, 18] of the same compound?
**A.** Its pest or weed control at 16 g/ha is 65%.

**Q.** And the pest or weed control at 31 g/ha [6, 18]?
**A.** The pest or weed control at 31 g/ha was 75%.
